Test results taken from publication PMC9537541, “Synthesis and anticancer activity of new benzensulfonamides incorporating s-triazines as cyclic linkers for inhibition of carbonic anhydrase IX” (Scientific Reports, 2022).
Where a name gives a salt, the structure may show the parent alone.

What was measured:
hCA I = target: T1, hCA I (Homo sapiens, UniProt P00915); experiment: stopped-flow CO2 hydrase assay, hCA I; assay type: biochemical; conditions: stopped flow technique, mean from 3 different assays
T1 construct: made in house
T1 sequence (P00915 whole entry): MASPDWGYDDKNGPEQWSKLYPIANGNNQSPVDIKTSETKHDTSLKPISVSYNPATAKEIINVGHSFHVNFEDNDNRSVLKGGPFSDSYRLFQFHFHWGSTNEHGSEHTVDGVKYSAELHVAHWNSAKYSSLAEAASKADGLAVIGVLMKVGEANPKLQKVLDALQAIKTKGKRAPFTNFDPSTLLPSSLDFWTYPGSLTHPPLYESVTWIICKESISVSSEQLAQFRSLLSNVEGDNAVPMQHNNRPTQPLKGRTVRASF
Experimental: (§1) Target compounds of series (A) and (B) were screened as inhibitors concerning the physiologically relevant hCAs; cytosolic isoforms (hCA I and II) in addition to the transmembrane tumor related isoforms (hCA IX and XII) via a stopped-flow assay of carbonic anhydrase catalyzed CO2 hydration. Acetazolamide (AAZ), CA I drug, was also incorporated in the assays as a standard drug. […] Four CA isoforms inhibition activity was measured by assaying CA catalyzed CO2 hydration via an applied photophysics stopped-flow instrument. PRISM 3 and the Cheng-prusoff equation were used to determine the inhibition constant by non-linear least square methods as reported, and represent the mean from three different determination at least. All tested carbonic anhydrase isoforms were recombinant proteins prepared in lab as described earlier,[57].

hCA II = target: T2, hCA II (Homo sapiens, UniProt P00918); experiment: stopped-flow CO2 hydrase assay, hCA II; assay type: biochemical; conditions: stopped flow technique, mean from 3 different assays
T2 construct: made in house
Experimental: as §1

hCA IX = target: T3, hCA IX (Homo sapiens, UniProt Q16790); experiment: stopped-flow CO2 hydrase assay, hCA IX; assay type: biochemical; conditions: for Ki: stopped flow technique, mean from 3 different assays; for Selectivity index (SI) I/IX: hCA IX over off-target hCA I; for Selectivity index (SI) II/IX: hCA IX over off-target hCA II
T3 construct: made in house
Experimental: as §1

hCA XII = target: T4, hCA XII (Homo sapiens, UniProt O43570); experiment: stopped-flow CO2 hydrase assay, hCA XII; assay type: biochemical; conditions: for Ki: stopped flow technique, mean from 3 different assays; for Selectivity index (SI) I/XII: hCA XII over off-target hCA I; for Selectivity index (SI) II/XII: hCA XII over off-target hCA II
T4 construct: made in house
T4 sequence (O43570 25-354): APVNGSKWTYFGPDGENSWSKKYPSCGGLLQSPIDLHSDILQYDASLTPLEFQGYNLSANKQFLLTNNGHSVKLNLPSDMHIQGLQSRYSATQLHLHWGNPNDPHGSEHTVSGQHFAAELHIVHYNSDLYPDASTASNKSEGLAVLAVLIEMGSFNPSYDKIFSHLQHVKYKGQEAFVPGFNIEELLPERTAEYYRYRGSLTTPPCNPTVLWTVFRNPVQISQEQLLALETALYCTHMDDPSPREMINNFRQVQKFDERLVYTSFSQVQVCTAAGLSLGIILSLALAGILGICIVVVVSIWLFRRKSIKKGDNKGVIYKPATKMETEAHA
Experimental: as §1

CNS cancer (SNB-75) = experiment: NCI single dose SRB screen, SNB-75; assay type: cell-based; conditions: Homo sapiens, SNB-75, 48 h, 10^−5 M single dose, read-out: GI% CNS cancer (SNB-75)
Experimental: (§2) Target compounds in series (A) and (B), were submitted to the National Cancer Institute (NCI) Developmental Therapeutic Program (www.dtp.nci.nih.gov), where they have been assessed, in vitro for their anticancer activity. Two series (A) and (B), were screened in a single dose (10 µM) versus full panel composed of 60 cancer cell lines, in accordance with protocol of drug evaluation branch, NCI, Bethesda. Sulforhodamine B (SRB) colorimetric assay was used to determine cell growth and viability,[40].
(§3) Protocol of Drug Evaluation Branch, NCI, Bethesda, was adopted in the antitumor assay. Assessment of cell growth and viability was carried out utilizing SRB assay and 48 h drug exposure protocol as previously reported,[40].

Renal cancer (UO-31) = experiment: NCI single dose SRB screen, UO-31; assay type: cell-based; conditions: Homo sapiens, UO-31, 48 h, 10^−5 M single dose, read-out: GI% Renal cancer (UO-31)
Experimental: as §2, §3

[1] = tested on: Breast cancer (MDA-MB-468); experiment: NCI single dose SRB screen, MDA-MB-468; assay type: cell-based; conditions: Homo sapiens, MDA-MB-468, 48 h, 10^−5 M single dose, 48 h, SRB; read-out: GI% Breast cancer (MDA-MB-468)
Experimental: as §2, §3

Leukemia (SR) = experiment: NCI single dose SRB screen, SR; assay type: cell-based; conditions: 48 h, 10^−5 M single dose, read-out: GI% Leukemia (SR)
Experimental: as §2, §3

Row | SMILES | melting point [°C] | Ki (hCA I) [nM] | Ki (hCA II) [nM] | Ki (hCA IX) [nM] | Ki (hCA XII) [µM] | inhibition at 10 µM (CNS cancer (SNB-75)) [%] | inhibition at 10 µM (Renal cancer (UO-31)) [%] | inhibition at 10 µM [1] [%] | inhibition at 10 µM (Leukemia (SR)) [%] | Selectivity index (SI) I/IX (hCA IX) | Selectivity index (SI) II/IX (hCA IX) | Selectivity index (SI) I/XII (hCA XII) | Selectivity index (SI) II/XII (hCA XII)
1 | NC1=NC2(CCCCC2)N(c2ccc(S(N)(=O)=O)cc2)C(N)=N1 (as salt: HCl) [Compound 6b, 4-(2,4-Diamino-1,3,5-triazaspiro[5.5]undeca-2,4-dien-1-yl)benzene-1-sulfonamide.HCl] | 257 to 259 | – | – | – | – | – | – | – | – | – | – | – | –
2 | CC1CCC2(CC1)N=C(N)N=C(N)N2c1ccc(S(N)(=O)=O)cc1 (stereo not drawn) (as salt: HCl) [Compound 6c, 4-(2,4-Diamino-9-methyl-1,3,5-triazaspiro[5.5]undeca-2,4-dien-1-yl)benzene-1-sulfonamide.HCl] | 245 to 247 | – | – | – | – | – | – | – | – | – | – | – | –
3 | NC1=NC2(CCCC2)N(c2ccc(S(=O)(=O)Nc3ccccn3)cc2)C(N)=N1 (as salt: HCl) [Compound 6d, 4-(7,9-Diamino-6,8,10-triazaspiro[4.5]deca-7,9-dien-6-yl}-N-(pyridin-2-yl)benzene-1-sulfonamide.HCl] | 221 to 223 | – | – | – | – | – | – | – | – | – | – | – | –
4 | NC1=NC2(CCCCC2)N(c2ccc(S(=O)(=O)Nc3ccccn3)cc2)C(N)=N1 (as salt: HCl) [Compound 6e, 4-(2,4-Diamino-1,3,5-triazaspiro[5.5]undeca-2,4-dien-1-yl)-N-(pyridin-2-yl)benzene-1-sulfonamide.HCl] | 246 to 248 | – | – | – | – | – | – | – | – | – | – | – | –
5 | CC1CCC2(CC1)N=C(N)N=C(N)N2c1ccc(S(=O)(=O)Nc2ccccn2)cc1 (stereo not drawn) (as salt: HCl) [Compound 6f., 4-(2,4-Diamino-9-methyl-1,3,5-triazaspiro[5.5]undeca-2,4-dien-1-yl)-N-(pyridin-2-yl)benzene-1-sulfonamide.HCl] | 217 to 219 | – | – | – | – | – | – | – | – | – | – | – | –
6 | NC1=NC2(CCCCCC2)N(c2ccc(S(=O)(=O)Nc3ccccn3)cc2)C(N)=N1 (as salt: HCl) [Compound 6g, 4-(2,4-Diamino-1,3,5-triazaspiro[5.6]dodeca-2,4-dien-1-yl)-N-(pyridin-2-yl)benzene-1-sulfonamide.HCl] | 239 to 241 | – | – | – | – | – | – | – | – | – | – | – | –
7 | NC1=NC2(CCCC2)N(c2ccc(S(=O)(=O)Nc3nccs3)cc2)C(N)=N1 (as salt: HCl) [Compound 6h, 4-{7,9-Diamino-6,8,10-triazaspiro[4.5]deca-7,9-dien-6-yl}-N-(1,3-thiazol-2-yl)benzene-1-sulfonamide.HCl] | 216 to 218 | – | – | – | – | – | – | – | – | – | – | – | –
8 | NC1=NC2(CCCCC2)N(c2ccc(S(=O)(=O)Nc3nccs3)cc2)C(N)=N1 (as salt: HCl) [Compound 6i, 4-(2,4-Diamino-1,3,5-triazaspiro[5.5]undeca-2,4-dien-1-yl)-N-(1,3-thiazol-2-yl)benzene-1-sulfonamide.HCl] | 245 to 247 | – | – | – | – | – | – | – | – | – | – | – | –
9 | CC1CCC2(CC1)N=C(N)N=C(N)N2c1ccc(S(=O)(=O)Nc2nccs2)cc1 (stereo not drawn) (as salt: HCl) [Compound 6j, 4-(2,4-Diamino-9-methyl-1,3,5-triazaspiro[5.5]undeca-2,4-dien-1-yl)-N-(1,3-thiazol-2-yl)benzene-1-sulfonamide.HCl] | 243 to 245 | – | – | – | – | – | – | – | – | – | – | – | –
10 | CC1(C)N=C(N)N=C(N)N1c1ccc(S(=O)(=O)Nc2ccccn2)cc1.Cl [Compound 5b, 4-(4,6-Diamino-2,2-dimethyl-1,2-dihydro-1,3,5-triazin-1-yl)-N-(pyridin-2-yl)benzene-1-sulfonamide HCl] | 209 to 211 | > 10000 | > 10000 | > 10000 | > 10 | 28 | 11 | ≤ 10 | ≤ 10 | – | – | – | –
11 | CC1(C)N=C(N)N=C(Nc2ccc(S(N)(=O)=O)cc2)N1 [Compound 7a, 4-[(4-Amino-6,6-dimethyl-1,6-dihydro-1,3,5-triazin-2-yl)amino]benzene-1-sulfonamide] | 268 to 270 | 6840 | 384 | 295 | 4.65 | ≤ 10 | 12 | ≤ 10 | ≤ 10 | 23.2 | 1.3 | 1.5 | 0.1
12 | NC1=NC2(CCCC2)NC(Nc2ccc(S(N)(=O)=O)cc2)=N1 [Compound 8a, 4-({9-Amino-6,8,10-triazaspiro[4.5]deca-7,9-dien-7-yl}amino)benzene-1-sulfonamide] | 264 to 266 | 94.4 | 3620 | 1420 | 7.42 | 14 | 17 | ≤ 10 | ≤ 10 | 0.1 | 2.5 | 0.01 | 0.5
13 | NC1=NC2(CCCCC2)NC(Nc2ccc(S(N)(=O)=O)cc2)=N1 [Compound 8b, 4-({4-Amino-1,3,5-triazaspiro[5.5]undeca-2,4-dien-2-yl}amino)benzene-1-sulfonamide] | 270 to 272 | 354 | 3160 | 2280 | 5.43 | 21 | ≤ 10 | 11 | 15 | 0.2 | 1.4 | 0.1 | 0.6
14 | CC1CCC2(CC1)N=C(N)N=C(Nc1ccc(S(N)(=O)=O)cc1)N2 (stereo not drawn) [Compound 8c, 4-({4-Amino-9-methyl-1,3,5-triazaspiro[5.5]undeca-2,4-dien-2-yl}amino)benzene-1-sulfonamide] | 264 to 266 | 408 | 591 | 1220 | 0.936 | ≤ 10 | ≤ 10 | ≤ 10 | ≤ 10 | 0.3 | 0.5 | 0.4 | 0.6
15 | N#CCc1nc(N)nc(Nc2ccc(S(N)(=O)=O)cc2)n1 [Compound 10, 4-{[4-amino-6-(cyanomethyl)-1,3,5-triazin-2-yl]amino}benzene-1-sulfonamide] | 284 to 286 | 72.3 | 49.2 | 2450 | 7.63 | 33 | ≤ 10 | ≤ 10 | ≤ 10 | 0.03 | 0.02 | 0.01 | 0.006
16 | N#C/C(=C\c1ccccc1)c1nc(N)nc(Nc2ccc(S(N)(=O)=O)cc2)n1 [Compound 12a, 4-({4-Amino-6-[(1E)-1-cyano-2-phenyleth-1-en-1-yl]-1,3,5-triazin-2-yl}amino)benzene-1-sulfonamide] | 174 to 176 | 3600 | 436 | 1540 | 8.06 | ≤ 10 | ≤ 10 | ≤ 10 | ≤ 10 | 2.3 | 0.3 | 0.4 | 0.05
